Measured values as given in patent US20250144067A1, “PERSONALIZED STARVATION THERAPY FOR CANCER” (Faeth Therapeutics, Inc., priority 2021, published 2025).
Where a name gives a salt, the structure may show the parent alone. Read-outs that look alike come from different tables or passages of the source.

Assays:
[1] = system: NCI-H292 lung cancer cells; assay: FDA drug screening, complete media vs cholesterol-free media without statin (TABLE 1); type: cell-based, human
[2] = system: NCI-H292 lung cancer cells; assay: FDA drug screening, complete media vs cholesterol-free media with simvastatin (TABLE 2); type: cell-based, human
[3] = Complete minus Cholesterol-free, greater than 0 enhanced anti-cancer activity, about 0 neutral, below 0 antagonist
[4] = NCI-H292 cells, FDA drug library screen, cholesterol-free media without statin
[5] = NCI-H292 cells, FDA drug library screen, complete media
[6] = NCI-H292 cells, FDA drug library screen, cholesterol-free media with simvastatin 0.04 μM
[7] = complete media vs cholesterol-free media + simvastatin (0.04 μM), >0 enhanced anti-cancer activity, about 0 neutral, <0 antagonist
[8] = Complete minus Cholesterol-free, […]
[9] = NCI-H292 cells, cholesterol-free media without statin
[10] = complete media vs cholesterol-free media + simvastatin (0.04 μM), […]
[11] = NCI-H292 cells, cholesterol-free media with simvastatin 0.04 μM, FDA drug library screen (TABLE 2)
[12] = NCI-H292 cells, complete media, FDA drug library screen (TABLE 2)
[13] = Complete minus Cholesterol-free, >0 enhanced anti-cancer activity, about 0 neutral, <0 antagonist
[14] = NCI-H292 cells, FDA library drug in cholesterol-free media with simvastatin 0.04 μM
[15] = NCI-H292 cells, FDA library drug in complete media
[16] = complete media minus cholesterol-free media + simvastatin (0.04 μM), >0 enhanced anti-cancer activity, about 0 neutral, <0 antagonist

CC(OC(=O)NCC1(CC(=O)O)CCCCC1)OC(=O)C(C)C (stereo not drawn) [Gabapentin enacarbil]
Difference [1, 3]: −0.14
Cholesterol-free [1, 4]: 1.017
Complete [1, 5]: 0.8727
Cholesterol-free media + simvastatin (0.04 μM) [2, 6]: 1.032
Complete Media [2, 5]: 0.9332
Difference [2, 7]: −0.10

NCC1(CC(=O)O)CCCCC1 [Gabapentin]
Difference [1, 8]: −0.30
Cholesterol-free [1, 9]: 1.237
Complete ([1]; NCI-H292 cells, complete media): 0.9357
Cholesterol-free media + simvastatin (0.04 μM) [2, 6]: 1.126
Complete Media [2, 5]: 1.036
Difference [2, 10]: −0.09

CNC(=O)CN(CCN(CCN(CC(=O)[O-])CC(=O)NC)CC(=O)[O-])CC(=O)[O-].O.[Gd+3] [Gadodiamide (hydrate)]
Difference [1, 8]: −0.65
Cholesterol-free ([1]; NCI-H292 cells in cholesterol-free media without statin): 1.387
Complete ([1]; NCI-H292 cells in complete media): 0.7342
Cholesterol-free media + simvastatin (0.04 μM) [2, 6]: 1.113
Complete Media [2, 5]: 0.9905
Difference [2, 10]: −0.12

COc1ccc2c3c1O[C@H]1C[C@@H](O)C=C[C@@]31CCN(C)C2 [Galanthamine (hydrobromide)]
Difference [1, 8]: −0.25
Cholesterol-free [1, 9]: 1.284
Complete ([1]; NCI-H292 cells, complete media): 1.033
Cholesterol-free media + simvastatin (0.04 μM) ([2]; NCI-H292 cells, cholesterol-free media with simvastatin 0.04 μM, […]): 1.411
Complete Media ([2]; NCI-H292 cells, complete media, […]): 1.432
Difference ([2]; complete media minus cholesterol-free media + simvastatin, […]): 0.02

COc1ccc2c3c1O[C@H]1C[C@@H](O)C=C[C@@]31CCN(C)C2 [Galanthamine]
Cholesterol-free [1, 9]: 1.164
Complete ([1]; NCI-H292 cells, complete media): 0.829
Difference ([1]; complete vs cholesterol-free media, […]): −0.33
Cholesterol-free media + simvastatin (0.04 μM) [2, 11]: 1.051
Complete Media [2, 12]: 1.046
Difference ([2]; complete media minus cholesterol-free media + simvastatin (0.04 μM), […]): −0.01

CC[N+](CC)(CC)CCOc1cccc(OCC[N+](CC)(CC)CC)c1OCC[N+](CC)(CC)CC [Gallamine Triethiodide]
Difference [1, 13]: −0.28
Cholesterol-free [1, 9]: 1.311
Complete ([1]; NCI-H292 cells, complete media): 1.029
Cholesterol-free media + simvastatin (0.04 μM) [2, 14]: 1.372
Complete Media [2, 15]: 1.027
Difference [2, 7]: −0.35

O=C(O)c1cc(O)c(O)c(O)c1 [Gallic acid]
Difference [1, 3]: −0.08
Cholesterol-free [1, 4]: 1.301
Complete [1, 5]: 1.222
Cholesterol-free media + simvastatin (0.04 μM) [2, 14]: 2.089
Complete Media [2, 15]: 1.613
Difference [2, 7]: −0.48

CCCN1C[C@H](C)[C@@H](O)[C@](C)(O)[C@@H](CC)OC(=O)[C@H](C)[C@@H](O[C@H]2C[C@@](C)(OC)[C@@H](O)[C@H](C)O2)[C@H](C)[C@@H](O[C@@H]2O[C@H](C)C[C@H](N(C)C)[C@H]2O)[C@](C)(O)C[C@H]1C [Gamithromycin]
Cholesterol-free [1, 9]: 1.35
Complete ([1]; NCI-H292 cells, complete media): 0.886
Difference ([1]; complete vs cholesterol-free media, greater than 0 enhanced anti-cancer activity, about 0 neutral, below 0 antagonists): −0.46
Cholesterol-free media + simvastatin (0.04 μM) [2, 6]: 1.403
Complete Media [2, 5]: 1.765
Difference ([2]; complete media minus cholesterol-free media + simvastatin, >0 enhanced anti-cancer activity, about 0 neutral, <0 antagonist): 0.36

Nc1nc(O)c2ncn(COC(CO)CO)c2n1 [Ganciclovir (sodium)]
Difference [1, 13]: −0.19
Cholesterol-free [1, 9]: 0.9099
Complete ([1]; NCI-H292 cells, complete media): 0.7218
Cholesterol-free media + simvastatin (0.04 μM) [2, 11]: 1.423
Complete Media [2, 12]: 1.395
Difference [2, 16]: −0.03

Nc1nc(O)c2ncn(COC(CO)CO)c2n1 [Ganciclovir]
Difference [1, 13]: 0.07
Cholesterol-free ([1]; NCI-H292 cells, cholesterol-free media without statin, FDA drug library screen): 0.8931
Complete ([1]; NCI-H292 cells, complete media, FDA drug library screen): 0.9638
Cholesterol-free media + simvastatin (0.04 μM) [2, 11]: 0.88
Complete Media [2, 12]: 0.8599
Difference [2, 16]: −0.02

OCc1ccc(O[C@@H]2O[C@H](CO)[C@@H](O)[C@H](O)[C@H]2O)cc1 [Gastrodin]
Cholesterol-free [1]: 1.466
Complete [1]: 1.162
Difference [1]: −0.30
Cholesterol-free media + simvastatin (0.04 μM) [2]: 1.131
Complete Media [2]: 1.355
Difference [2]: 0.22

COc1c(N2CCNC(C)C2)c(F)cc2c(=O)c(C(=O)O)cn(C3CC3)c12 (stereo not drawn) [Gatifloxacin (hydrochloride)]
Difference [1, 3]: −0.09
Cholesterol-free [1, 4]: 1.038
Complete [1, 5]: 0.9512
Cholesterol-free media + simvastatin (0.04 μM) [2, 6]: 0.9302
Complete Media [2, 5]: 0.7736
Difference [2, 7]: −0.16
